Assay results taken from patent US20240400560A1, “BICYCLIC HETEROCYCLIC DERIVATIVE HAVING VIRAL GROWTH INHIBITORY ACTIVITY AND PHARMACEUTICAL COMPOSITION CONTAINING SAME” (Shionogi & Co., Ltd., priority 2021, published 2024).
Like-named read-outs stand apart in the source and are kept apart here.

Tests used:
SARS-CoV-2 = assay: Inhibitory activity of cytopathic effect (CPE) in HEK293T/ACE2-TMPRSS2 cells; format: cell-based; conditions: Severe acute respiratory syndrome coronavirus 2, HEK-293T, 72 h
SARS-CoV-2 3CL protease = SARS-CoV-2 3CL protease (Severe acute respiratory syndrome coronavirus 2, UniProt P0DTD1); assay: Inhibitory activity test against SARS-CoV-2 3CL proteases; format: biochemical
[1] = HEK293T/ACE2-TMPRSS2 cells, cultured 3 days, CellTiter-Glo 2.0 luminescence, read-out: EC50 (50% SARS-CoV-2 infected cell death inhibitory concentration)
[2] = IC50 (50% SARS-CoV-2 3CL protease inhibitory concentration)
[3] = read-out: IC50 (50% SARS-CoV-2 3CL protease inhibitory concentration)
[4] = 50% SARS-CoV-2 infected cell death inhibitory concentration, HEK293T/ACE2-TMPRSS2 cells, CellTiter-Glo 2.0 after 3 days culture, read-out: EC50

SMILES	EC50 (SARS-CoV-2; [1]) [nM]	IC50 (SARS-CoV-2 3CL protease; [2]) [nM]	IC50 (SARS-CoV-2 3CL protease; [3]) [nM]	EC50 (SARS-CoV-2; [4]) [nM]	EC50 (SARS-CoV-2; read-out: EC50 (50% SARS-CoV-2 infected cell death inhibitory concentration)) [nM]
COCCNc1cc2c(c(OC)n1)c(=O)n(-c1cnc3cc(F)ccn13)c(=O)n2-c1ccc(F)c(Cl)c1 [Compound I-1049]	< 100	< 100			
COc1nc2c(=O)n(Cc3ncn(C)n3)c(=O)n(Cc3cc(Cl)ccc3Cl)c2cc1-c1cc(C#N)ccc1Cl [Compound I-0713]	100 to 1000		< 100		
COc1cc(-c2cc(C#N)ccc2Br)cc2c1c(=O)n(Cc1ncn(C)n1)c(=O)n2Cc1cc(F)c(F)c(F)c1 [Compound I-0891]			10	12.1	
COc1nc(N2CC[C@@H](OC)C2)cc2c1c(=O)n(-c1cncc(Cl)c1)c(=O)n2-c1ccc(F)c(Cl)c1 [Compound I-0744]			1.4	6.94	
COc1nc(N2CC[C@@H](CO)C2)cc2c1c(=O)n(-c1cnc3cc(F)ccn13)c(=O)n2-c1ccc(F)c(Cl)c1 [Compound I-0750]			6.1	25.9	
Cn1cnc(Cn2c(=O)c3c4c(c(N5CCC(F)(F)C5)cc3n(Cc3cc(F)c(F)c(Cl)c3)c2=O)CCO4)n1 [Compound I-0814]	< 100		< 100		
COc1nc(N2CC[C@@H](O)C2)cc2c1c(=O)n(-c1cncc(C#N)c1)c(=O)n2-c1ccc(F)c(Cl)c1 [Compound I-0957]			3.2	8.14	
COc1nc2c(=O)n(Cc3ncn(C)n3)c(=O)n(Cc3cc(F)c(F)c(Cl)c3)c2cc1-c1nc(C#N)ccc1Cl [Compound I-0819]	< 100		< 100		
Cn1cnc(Cn2c(=O)c3c4nccnc4c(-c4cc(C#N)ccc4Cl)cc3n(Cc3cc(F)c(F)c(F)c3)c2=O)n1 [Compound I-0934]	< 100		< 100		
Cn1cnc(Cn2c(=O)c3c(cc(-c4cc(C#N)ccc4Cl)n4nnnc34)n(Cc3cc(F)c(F)c(F)c3)c2=O)n1 [Compound I-0639]	100 to 1000		< 100		
COc1nc(N2CC[C@@H](C(C)(C)O)C2)cc2c1c(=O)n(-c1cncc(Cl)c1)c(=O)n2-c1ccc(F)c(Cl)c1 [Compound I-1059]	< 100		< 100		
Cn1c(-c2cc(C#N)ccc2Cl)cc2c(c1=O)c(=O)n(-c1cnc3cc(F)ccn13)c(=O)n2Cc1cc(F)c(F)c(F)c1 [Compound I-0727]			1.1	102	
COc1nc(N2CC[C@@H](C#N)C2)cc2c1c(=O)n(-c1cnc3cc(F)c(F)cn13)c(=O)n2-c1ccc(F)c(Cl)c1 [Compound I-0946]	< 100		< 100		
COc1nc(N2CCCC2)cc2c1c(=O)n(-c1cnc3cc(F)ccn13)c(=O)n2-c1ccc(F)c(Cl)c1 [Compound I-0752]	< 100		< 100		
COc1nc(N2C[C@@H](F)[C@@H](F)C2)cc2c1c(=O)n(-c1cnc3cc(F)ccn13)c(=O)n2-c1ccc(F)c(Cl)c1 [Compound I-0747]	< 100		< 100		
COc1nc2c(=O)n(Cc3ncn(C)n3)c(=O)n(Cc3cc(Cl)c(F)cc3Cl)c2cc1-c1cc(C#N)ccc1Cl [Compound I-0551]	< 100		< 100		
COC[C@H]1CCCN1c1cc2c(c(OC)n1)c(=O)n(-c1cnc3cc(F)ccn13)c(=O)n2-c1ccc(F)c(Cl)c1 [Compound I-1050]	< 100		< 100		
COc1nc2c(=O)n(Cc3ncn(C)n3)c(=O)n(Cc3cc(C#N)c(F)cc3Cl)c2cc1-c1cc(C#N)ccc1Cl [Compound I-0722]	< 100		< 100		
[2H]C([2H])([2H])O[C@@H]1CCN(c2cc3c(c(OC)n2)c(=O)n(-c2cncc(C#N)c2)c(=O)n3-c2ccc(F)c(F)c2)C1 [Compound I-1026]	< 100		< 100		
COc1cc(-c2c(Cl)ccc3c2CC(=O)N3C)cc2c1c(=O)n(Cc1ncn(C)n1)c(=O)n2Cc1cc(F)c(F)c(F)c1 [Compound I-0869]	< 100		< 100		
COc1nc(N2CCOC[C@H]2C)cc2c1c(=O)n(-c1cnc3cc(F)ccn13)c(=O)n2-c1ccc(F)c(Cl)c1 [Compound I-1054]	< 100		< 100		
Cn1cnc(Cn2c(=O)c3c4c(c(-c5cc(C#N)ccc5Cl)cc3n(Cc3cc(F)c(F)c(F)c3)c2=O)[C@H](O)CO4)n1 [Compound I-0865]	100 to 1000		< 100		
COc1cc(-c2cc(C#N)ccc2Cl)cc2c1c(=O)n(Cc1ncn(C)n1)c(=O)n2[C@H](C)c1cc(F)c(F)c(F)c1 [Compound I-0595]	< 100		< 100		
Cn1cnc(Cn2c(=O)c3c4nccnc4c(-c4cc5c(cc4Cl)NC(=O)C5)cc3n(Cc3cc(F)c(F)c(Cl)c3)c2=O)n1 [Compound I-0823]			0.75	197	
COc1nc(N2CC[C@@H](O)C2)cc2c1c(=O)n(-c1cncc(OC(F)F)c1)c(=O)n2-c1ccc(F)c(F)c1 [Compound I-1040]	< 100		< 100		

SMILES	EC50 (SARS-CoV-2; [1]) [nM]	IC50 (SARS-CoV-2 3CL protease; [2]) [nM]	IC50 (SARS-CoV-2 3CL protease; [3]) [nM]	EC50 (SARS-CoV-2; [4]) [nM]	EC50 (SARS-CoV-2; read-out: EC50 (50% SARS-CoV-2 infected cell death inhibitory concentration)) [nM]
[2H]C([2H])([2H])O[C@@H]1CCN(c2cc3c(c(OC)n2)c(=O)n(-c2cncc(Cl)c2)c(=O)n3-c2ccc(F)c(F)c2)C1 [Compound I-0973]	< 100		< 100		
COc1nc(N2CC[C@@H](C#N)C2)cc2c1c(=O)n(-c1cncc(Cl)c1)c(=O)n2-c1ccc(F)c(Cl)c1 [Compound I-0936]			1.1	5.34	
COc1nc(N2CC[C@@H](C#N)C2)cc2c1c(=O)n(-c1cncc(Cl)c1)c(=O)n2-c1ccc(F)c(F)c1 [Compound I-0949]	< 100		< 100		
COc1nc2c(=O)n(Cc3ncn(C)n3)c(=O)n(Cc3cc(F)c(F)c(Cl)c3)c2cc1-c1cc(C(C)(C)O)c(F)cc1Cl [Compound I-0816]	< 100		< 100		
COc1nc(N2CC[C@@H](F)C2)cc2c1c(=O)n(-c1cnc3cc(F)ccn13)c(=O)n2-c1ccc(F)c(Cl)c1 [Compound I-0746]			1.4	5.6	
COc1cc(-c2c(Cl)ccc3c2CCN(C)C3=O)cc2c1c(=O)n(Cc1ncn(C)n1)c(=O)n2Cc1cc(F)c(F)c(F)c1 [Compound I-0867]			1.2	47.9	
[2H]C([2H])([2H])O[C@@H]1CCN(c2cc3c(c(OC)n2)c(=O)n(-c2cncc(OC(F)F)c2)c(=O)n3-c2ccc(F)c(F)c2)C1 [Compound I-1038]	< 100		< 100		
Cn1cnc(Cn2c(=O)c3c4nccnc4c(-c4cc(C(C)(C)O)c(F)cc4Cl)cc3n(Cc3cc(F)c(F)c(Cl)c3)c2=O)n1 [Compound I-0815]	< 100		< 100		
COc1nc(N2CC[C@@H](C#N)C2)cc2c1c(=O)n(-c1cncc(OC(F)F)c1)c(=O)n2-c1ccc(F)c(Cl)c1 [Compound I-0951]	< 100		< 100		
CCN(C)c1cc2c(c(OC)n1)c(=O)n(-c1cnc3cc(F)ccn13)c(=O)n2-c1ccc(F)c(Cl)c1 [Compound I-0993]	< 100		< 100		
COc1nc(N2CC(F)C2)cc2c1c(=O)n(-c1cnc3cc(F)ccn13)c(=O)n2-c1ccc(F)c(Cl)c1 [Compound I-0987]	< 100		< 100		
CNC(=O)c1ccc(Cl)c(-c2cc3c(c4c2CCO4)c(=O)n(Cc2ncn(C)n2)c(=O)n3Cc2cc(F)c(F)c(Cl)c2)n1 [Compound I-0870]	< 100		< 100		
COCCCc1cc2c(c(OC)n1)c(=O)n(-c1cnc3cc(F)ccn13)c(=O)n2-c1ccc(F)c(Cl)c1 [Compound I-1062]	< 100		< 100		
COc1nc2c(=O)n(Cc3ncn(C)n3)c(=O)n(Cc3cc(F)c(F)c(Cl)c3)c2cc1-c1nc(C(F)F)ccc1Cl [Compound I-0879]	< 100		< 100		
COc1cc(-n2c(=O)n(Cc3ncn(C)n3)c(=O)c3c(OC)nc(N4CC[C@@H](F)C4)cc32)cc(Cl)c1F [Compound I-0804]	< 100		< 100		
COc1nc(N2C[C@@H]3C[C@H]2CO3)cc2c1c(=O)n(-c1cnc3cc(F)ccn13)c(=O)n2-c1ccc(F)c(Cl)c1 [Compound I-0943]	< 100		< 100		
COc1nc(-c2cc(C#N)ccc2Cl)cc2c1c(=O)n(-c1cnc3cc(F)ccn13)c(=O)n2Cc1cc(F)c(F)c(F)c1 [Compound I-0672]	< 100		< 100		
COc1nc(N2[C@@H]3CC[C@H]2CNC3)cc2c1c(=O)n(-c1cnc3cc(F)ccn13)c(=O)n2-c1ccc(F)c(Cl)c1 [Compound I-0729]		< 100			< 100
COc1nc(N2CCC2)cc2c1c(=O)n(-c1cnc3cc(F)ccn13)c(=O)n2-c1ccc(F)c(Cl)c1 [Compound I-1002]	< 100		< 100		
COc1cc(N2CCCC2)cc2c1c(=O)n(Cc1ncn(C)n1)c(=O)n2Cc1cc(Cl)ccc1Br [Compound I-0786]	100 to 1000		< 100		
CNC(=O)c1nc(-c2cc3c(nc2OC)c(=O)n(Cc2ncn(C)n2)c(=O)n3Cc2cc(F)c(F)c(Cl)c2)c(Cl)cc1F [Compound I-0881]	< 100		< 100		
COc1nc(N2CC[C@@H](CO)C2)cc2c1c(=O)n(-c1cncc(Cl)c1)c(=O)n2-c1ccc(F)c(Cl)c1 [Compound I-0969]	< 100		< 100		
Cn1cnc(Cn2c(=O)c3c4ncccc4c(-c4cc(C#N)ccc4Cl)cc3n(Cc3cc(F)c(F)c(F)c3)c2=O)n1 [Compound I-0632]			3.1	50.1	
Cn1cnc(Cn2c(=O)c3c4ncn(C)c4c(-c4cc(C#N)ccc4Cl)cc3n(Cc3cc(F)c(F)c(F)c3)c2=O)n1 [Compound I-0556]			0.94	376	
Cn1cnc(Cn2c(=O)c3c4ncn(C)c4c(N4CC[C@@H](F)C4)cc3n(Cc3cc(F)c(F)c(F)c3)c2=O)n1 (racemic) [Compound I-0554]			330	2750	
